Key:
[1] = tested on: MCF7; experiment: Cytotoxicity against human MCF7 cells by MTT assay; type: functional, cell-based
[2] = tested on: HeLa; experiment: Potency index, ratio of pinophilin-B IC50 to test compound IC50 against human HeLa cells; type: functional
[3] = tested on: MDA-MB-231; experiment: Potency index, ratio of pinophilin-B IC50 to test compound IC50 against human MDA-MB-231 cells; type: functional
[4] = tested on: HeLa; experiment: Cytotoxicity against human HeLa cells by MTT assay; type: functional, cell-based
[5] = tested on: MCF7; experiment: Potency index, ratio of pinophilin-B IC50 to test compound IC50 against human MCF7 cells; type: functional
[6] = tested on: A549; experiment: Cytotoxicity against human A549 cells by MTT assay; type: functional, cell-based
[7] = tested on: MGC-803; experiment: Potency index, ratio of pinophilin-B IC50 to test compound IC50 against human MGC803 cells; type: functional
[8] = tested on: MGC-803; experiment: Cytotoxicity against human MGC803 cells by MTT assay; type: functional, cell-based
[9] = tested on: A549; experiment: Potency index, ratio of pinophilin-B IC50 to test compound IC50 against human A549 cells; type: functional
[10] = tested on: MDA-MB-231; experiment: Cytotoxicity against human MDA-MB-231 cells by MTT assay; type: functional, cell-based

SMILES | IC50 [1] [µM] | Ratio IC50 [2] | Ratio IC50 [3] | IC50 [4] [µM] | Ratio IC50 [5] | IC50 [6] [µM] | Ratio IC50 [7] | IC50 [8] [µM] | Ratio IC50 [9] | IC50 [10] [µM]
Cc1cc(O)cc(O)c1C(=O)O[C@H]1[C@@H]2COC([C@H]3[C@H](CO)[C@H]4C(=O)[C@@](C)(O)[C@@H](OC(=O)c5c(C)cc(O)cc5O)[C@@H]5COC(/C=C/CO)=C[C@]453)=CC2=CC(=O)[C@@]1(C)O | 2.1 | 30 - 90 | 30 - 90 | 2.5 | 30 - 90 | 1 | 30 - 90 | 1.3 | 30 - 90 | 1.9
Cc1cc(O)cc(O)c1C(=O)O[C@H]1[C@@H]2COC([C@H]3[C@H](CO)[C@@H](CO)[C@@H]3C3=CC4=CC(=O)[C@@](C)(O)[C@@H](OC(=O)c5c(C)cc(O)cc5O)[C@@H]4CO3)=CC2=CC(=O)[C@@]1(C)O | > 10 | 30 - 90 | 30 - 90 | 3 | 30 - 90 | 3.5 | 30 - 90 | 2 | 30 - 90 | 3.8
Cc1cc(O)cc(O)c1C(=O)O[C@H]1[C@@H]2COC(/C=C/CO)=CC2=CC(=O)[C@@]1(C)O [PINOPHILIN B] | 95 | – | – | 78 | – | 89 | – | 84 | – | 97
